Columns and labels:
Format in all cases: in vivo
[1] = system: broad leaf weeds (Lindernia pyxidaria and Monochoria vaginalis); experiment: Test Example 1: herbicidal effect test by treatment of rice paddy soil (immediately after seeding); settings: 120 g/10a active ingredient, dry weight vs untreated area, 14 days after treatment
Summary of the method: (§1)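 Paddy soil in pots with compound fertilizer, puddled; 30 seeds per species sown at 0–1 cm, flooded ~3 cm, greenhouse. Water-diluted emulsions dropped onto water immediately after seeding at 120 g active ingredient per 10 ares, duplicate. Herbicidal rate (%) from plant dry weight versus untreated, 14 days after treatment.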

Echinochloa crus-galli [2] = experiment: as above; settings: 120 g/10a active ingredient, dry weight vs untreated area, 14 days after treatment
Summary of the method: as §1

Scirpus juncoides [3] = experiment: as above; settings: 120 g/10a active ingredient, dry weight vs untreated area, 14 days after treatment
Summary of the method: as §1

[4] = system: broad leaf weeds (Lindernia pyxidaria and Monochoria vaginalis); experiment: Test Example 2: herbicidal effect test by treatment during growing period in paddy rice cultivation (seven days after seeding); settings: 120 g/10a active ingredient, assessed 14 days after treatment, dry weight vs untreated area
Summary of the method: (§2)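 Emulsion formulations, diluted in water, applied dropwise to flooded pots (about 3 cm water) 7 days post-seeding at 120 g a.i./10 ares. Weeds sown 30 seeds each, 0–1 cm deep in puddled paddy soil; greenhouse. Readout: % reduction in plant dry weight vs untreated, day 14, duplicates.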

Echinochloa crus-galli [5] = experiment: as above; settings: 120 g/10a active ingredient, assessed 14 days after treatment, dry weight vs untreated area
Summary of the method: as §2

Scirpus juncoides [6] = experiment: as above; settings: 120 g/10a active ingredient, assessed 14 days after treatment, dry weight vs untreated area
Summary of the method: as §2

Chenopodium album [7] = experiment: Test Example 4: herbicidal effect test by treatment of leave and stem in dry field farming (seven days after seeding); settings: 120 g/10a active ingredient; emulsion sprayed seven days after seeding; evaluated 14 days after treatment
Summary of the method: (§3)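 Twenty seeds per species were mixed into the top 1 cm of alluvial soil in 36 cm^2 pots; emulsions were sprayed seven days after seeding at 100 L per 10 ares (120 g active ingredient per 10 ares). Herbicidal rate (%) = {1 − treated/untreated mean dry weight} × 100, 14 days after treatment, duplicate.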

Echinochloa crus-galli [8] = experiment: as above; settings: 120 g/10a active ingredient; emulsion sprayed seven days after seeding; evaluated 14 days after treatment
Summary of the method: as §3

Amaranthus viridis [9] = experiment: as above; settings: 120 g/10a active ingredient; emulsion sprayed seven days after seeding; evaluated 14 days after treatment
Summary of the method: as §3

southern crabgrass [10] = experiment: as above; settings: 120 g/10a active ingredient; emulsion sprayed seven days after seeding; evaluated 14 days after treatment
Summary of the method: as §3

Chenopodium album [11] = experiment: Test Example 3: herbicidal effect test by treatment of dry field farming soil (one day after seeding); settings: 120 g/10a active ingredient, evaluated 14 days after treatment
Summary of the method: (§4)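 Herbicidal rate (%) = {1 − treated/untreated mean plant dry weight} × 100, scored 14 days after spraying, duplicate pots per concentration. Emulsified compound was water-diluted and applied to soil surface one day post-seeding at 120 g a.i. per 10 ares.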

Echinochloa crus-galli [12] = experiment: as above; settings: 120 g/10a active ingredient, evaluated 14 days after treatment
Summary of the method: as §4

Amaranthus viridis [13] = experiment: as above; settings: 120 g/10a active ingredient, evaluated 14 days after treatment
Summary of the method: as §4

southern crabgrass [14] = experiment: as above; settings: 120 g/10a active ingredient, evaluated 14 days after treatment
Summary of the method: as §4

SMILES	Herbicidal rate (%) Lindernia pyxidaria [1] [%]	Herbicidal rate (%) Monochoria vaginalis [1] [%]	Herbicidal rate (%) Echinochloa crus-galli (Echinochloa crus-galli [2]) [%]	Herbicidal rate (%) Scirpus juncoides (Scirpus juncoides [3]) [%]	Herbicidal rate (%) Lindernia pyxidaria [4] [%]	Herbicidal rate (%) Monochoria vaginalis [4] [%]	Herbicidal rate (%) Echinochloa crus-galli (Echinochloa crus-galli [5]) [%]	Herbicidal rate (%) Scirpus juncoides (Scirpus juncoides [6]) [%]	herbicidal effect (herbicidal rate), Chenopodium album (Chenopodium album [7]) [%]	herbicidal effect (herbicidal rate), Echinochloa crus-galli (Echinochloa crus-galli [8]) [%]	herbicidal effect (herbicidal rate), Amaranthus viridis (Amaranthus viridis [9]) [%]	herbicidal effect (herbicidal rate), southern crabgrass (southern crabgrass [10]) [%]	herbicidal rate, Chenopodium album (Chenopodium album [11]) [%]	herbicidal rate, Echinochloa crus-galli (Echinochloa crus-galli [12]) [%]	herbicidal rate, Amaranthus viridis (Amaranthus viridis [13]) [%]	herbicidal rate, southern crabgrass (southern crabgrass [14]) [%]
Cc1c(Cc2ccccc2NS(=O)(=O)C(F)(F)F)c(=O)on1C(C)C1CC1 (centres unmarked) [Compound 1-144]	90	100	100	90	50	80	90	90	0	90	50	90	0	70	0	80
CCC(C)n1oc(=O)c(Cc2ccccc2N(C(=O)c2ccc(Cl)cc2)S(=O)(=O)C(F)(F)F)c1C (centres unmarked) [Compound 1-484]	90	90	90	90	90	90	90	90	40	90	40	90	90	90	90	90
COCC(C)n1oc(=O)c(Cc2ccccc2N(C(=O)OCc2ccccc2)S(=O)(=O)C(F)(F)F)c1C (centres unmarked) [Compound 1-790]	90	90	90	90	90	90	90	90	40	90	40	90	90	90	90	90
CCC(C)n1oc(=O)c(Cc2ccccc2N(C(=O)OCC2CCCO2)S(=O)(=O)C(F)(F)F)c1C (centres unmarked) [Compound 1-829]	90	90	90	90	90	90	90	90	40	90	40	90	90	90	90	90
COCC(C)n1oc(=O)c(Cc2ccccc2N(C(=O)C2CC2)S(=O)(=O)C(F)(F)F)c1C (centres unmarked) [Compound 1-412]	90	90	90	90	90	90	90	90	40	90	40	90	90	90	90	90
Cc1c(Cc2ccccc2N(S(=O)(=O)C(F)(F)F)S(=O)(=O)C(F)(F)F)c(=O)on1CC1(C)CC1 [Compound 1-993]	100	100	100	100	50	60	90	90	40	60	40	40	40	90	40	80
Cc1c(Cc2ccccc2N(C(=O)CC(C)C)S(=O)(=O)C(F)(F)F)c(=O)on1CC(C)(C)C [Compound 1-355]	90	90	90	90	90	90	90	90	40	90	40	90	90	90	90	90
COC(=O)N(c1ccccc1Cc1c(C)n(C(C)C)oc1=O)S(=O)(=O)C(F)(F)F [Compound 1-575]	100	100	90	100	100	100	90	100	90	90	30	90	40	90	40	90

From US11109593B2, “Isoxazolin-5-one derivative and herbicide containing same as active ingredient” (HOKKO CHEMICAL INDUSTRY CO., LTD., priority 2017, dated 2021)
